Experimental data from patent publication US4622337A, “2,2-dimethyl-3-(2-halovinyl)cyclopropane carboxlic acid ester pesticides” (priority 1972, dated 1986).

How the values were obtained:
[1] = test system: female flies (houseflies); assay: Synergisability with sesamex, 2 μg per fly pretreatment; format: in vivo, Musca domestica; conditions: for Approx. Synergistic factor: sesamex, 2 μg. per fly; for LD 50 active compound + synergist: pretreated with 2 μg. per fly sesamex; for LD 50 active compound only: untreated flies
Method: (§1) Female flies were treated on the thorax with a one microliter drop of insecticide dissolved in acetone. Two replicates of 15 flies were used at each dose rate and 6 dose rates were used per compound under test. After treatment, the flies were maintained at a temperature of 20° C.±1° and kill was assessed 24 and 48 hours after treatment. LD50 values were calculated in micrograms of insecticide per fly and relative toxicities were calculated from the inverse ratios of the LD50 values.

[2] = test system: houseflies (Musca domestica); assay: Relative toxicity to houseflies, topical drop on thorax; format: in vivo; conditions: 5-benzyl-3-furylmethyl (1R)-trans-chrysanthemate = 1000; inverse ratio of LD50; topical, female flies
Method: (§2) The toxicity of these new esters was tested by the procedure described in detail in our above mentioned application and the following results were obtained:
(§3) The insecticidal acitivity of the esters of the invention was assessed against houseflies and mustard beetles using the following techniques:
as §1, with “values. (see Sawicki et al, Bulletin of the World Health Organization, 35,893, (1966) and Sawicki et al, Entomologia and Exp. Appl. 10, 253, (1967)).” for “values.”
(§4) Relative toxicities were calculated by comparison with 5-benzyl-3-furylmethyl(1R)-trans-chrysanthemate which is one of the most toxic chrysanthemate esters known to houseflies and mustard beetles, its toxicity being about 24 times that of allethrin to houseflies and 65 times that of allethrin to mustard beetles.

[3] = test system: mustard beetles (Phaedon cochleariae Fab); assay: Relative toxicity to mustard beetles, topical micro drop; format: in vivo; conditions: 5-benzyl-3-furylmethyl (1R)-trans-chrysanthemate = 1000; inverse ratio of LD50; topical, 48 hours
Method: as §2, §3
Acetone solutions of the test compound were applied ventrally to adult mustard beetles using a micro drop applicator. The treated insects were maintained for 48 hours after which time kill is assessed. Two replicates of 40 to 50 mustard beetles were used at each dose level and 3 to 4 dose levels were used for each compound. Again, LD50 values were calculated and relative toxicities were calculated for the inverse ratios of LD50 (see Elliott et al, J. Sci. Food Agric. 20, 561, (1969)).
as §4

Compound | Approx. Synergistic factor [1] | Relative Toxicity, Houseflies [2] | Relative Toxicity, Mustard Beetles [3] | LD 50 active compound + synergist [1] [μg. per female fly] | LD 50 active compound only [1] [μg. per female fly]
CC(C)=CC1C(C(=O)OCc2coc(Cc3ccccc3)c2)C1(C)C (racemic) [5-benzyl-3-furyl methyl (1RS)--cis-trans-chrysanthemate, reference compound] | ~13 |  |  |  | 
CC1(C)[C@H](C=C(Cl)Cl)[C@H]1C(=O)OCc1cccc(Oc2ccccc2)c1 (racemic) [Compound P21F, 3-Phenoxybenzyl(1RS)-trans-2,2-dimethyl-3-(2,2-dichlorovinyl)cyclopropane carboxylate] | ~39 | 400 | 790 | 0.00033 | 0.013
CC1(C)[C@H](C(=O)OCc2coc(Cc3ccccc3)c2)[C@@H]1C=C(Cl)Cl (relative stereo) [Compound P21D] | ~12 | 1200 | 1700 | 0.00046 | 0.0058
CC/C=C\[C@H]1[C@@H](C(=O)OCc2coc(Cc3ccccc3)c2)C1(C)C [Compound A cis] | ~6 |  |  | 0.0012 | 0.0074
CC1(C)[C@H](C=C(Br)Br)[C@H]1C(=O)OCc1coc(Cc2ccccc2)c1 [Compound P21B] |  | 1100 | 1900 |  | 
CC1(C)C(C=C(Cl)Cl)C1C(=O)OCc1cccc(Cc2ccccc2)c1 (stereo not shown) [Compound P21K] |  | 340 | 350 |  | 
COC(=O)C(Cl)=C[C@@H]1[C@@H](C(=O)OCc2coc(Cc3ccccc3)c2)C1(C)C [Compound P24A, 5-benzyl-3-furylmethyl ester of 2,2-dimethyl-3-(2-chloro-2-carbomethoxyvinyl)cyclopropane carboxylic acid] |  | 82 | 310 |  | 
CCOC(=O)C(Cl)=C[C@@H]1[C@@H](C(=O)OCc2coc(Cc3ccccc3)c2)C1(C)C [Compound P24B] |  | 150 | 310 |  | 
CCCOC(=O)C(Cl)=C[C@@H]1[C@@H](C(=O)OCc2coc(Cc3ccccc3)c2)C1(C)C [Compound P24C] |  | 53 | 120 |  | 
CCOC(=O)C(Br)=C[C@@H]1[C@@H](C(=O)OCc2coc(Cc3ccccc3)c2)C1(C)C [Compound P24D] |  | 450 | 290 |  | 
CC1(C)[C@H](C(=O)OCc2cccc(Oc3ccccc3)c2)[C@@H]1C=C(Br)Br [Compound P29A, 3-phenoxybenzyl(1R)cis-2,2-dimethyl-3-(2,2-dibromovinyl)cyclopropane carboxylate] |  | 2200 | 1600 |  | 
CC1(C)[C@H](C(=O)OC(C#N)c2cccc(Oc3ccccc3)c2)[C@@H]1C=C(Br)Br (stereo partly drawn) [Compound P29B, (αRS)-cyano-3-phenoxybenzyl(1R)cis-2,2-dimethyl-3-(2,2-dibromovinyl)cyclopropane carboxylate] |  | 10000 | 11000 |  | 
CC1(C)[C@H](C=C(Br)Br)[C@H]1C(=O)OCc1cccc(Oc2ccccc2)c1 [Compound P29C, 3-phenoxybenzyl(1R)trans-2,2-dimethyl-3-(2,2-dibromovinyl)-cyclopropane carboxylate] |  | 1100 | 4000 |  | 
CC1(C)[C@H](C=C(Br)Br)[C@H]1C(=O)OC(C#N)c1cccc(Oc2ccccc2)c1 (stereo partly drawn) [Compound P29D, (αRS)-cyano-3-phenoxybenzyl(1R)trans-2,2-dimethyl-3-(2,2-dibromovinyl)-cyclopropane carboxylate] |  | 4100 | 5200 |  | 
CC1(C)[C@H](C=C(Cl)Cl)[C@H]1C(=O)OC(C#N)c1cccc(Oc2ccccc2)c1 (stereo partly drawn) [Compound P29E, (αRS)-cyano-3-phenoxybenzyl(1R)trans-2,2-dimethyl-3-(2,2-dichlorovinyl)-cyclopropane carboxylate] |  | 3900 | 3100 |  | 
CC1(C)[C@H](C(=O)OC(C#N)c2cccc(Oc3ccccc3)c2)[C@@H]1C=C(Cl)Cl (stereo partly drawn) [Compound P29J, (αRS)-cyano-3-phenoxybenzyl(1R)-cis-2,2-dimethyl-3-(2,2-dichlorovinyl)-cyclopropane carboxylate] |  | 11000 | 4200 |  | 
CC1(C)[C@H](C=C(Cl)Cl)[C@@H]1C(=O)OC(C#N)c1cccc(Oc2ccccc2)c1 (stereo partly drawn) [Compound P29K, (αRS)-cyano-3-phenxoybenzyl(1S)-cis-2,2-dimethyl-3-(2,2-dichlorovinyl)-cyclopropane carboxylate] |  | 140 | 130 |  | 
CC1(C)[C@H](C=C(F)F)[C@H]1C(=O)OCc1coc(Cc2ccccc2)c1 [Compound P31A] |  | 3900 | 1900 |  | 

Compound | Approx. Synergistic factor [1] | Relative Toxicity, Houseflies [2] | Relative Toxicity, Mustard Beetles [3] | LD 50 active compound + synergist [1] [μg. per female fly] | LD 50 active compound only [1] [μg. per female fly]
CC1(C)[C@H](C=C(F)F)[C@H]1C(=O)OCc1cccc(Oc2ccccc2)c1 [Compound P31B] |  | 620 | 270 |  | 
CC1(C)[C@H](C=C(F)F)[C@H]1C(=O)OC(C#N)c1cccc(Oc2ccccc2)c1 (stereo partly shown) [Compound P31C] |  | 840 | 730 |  | 
CC1(C)[C@H](C(=O)OCc2coc(Cc3ccccc3)c2)[C@@H]1C=C(F)F [Compound P31D] |  | 2300 | 1300 |  | 
CC1(C)[C@H](C(=O)OCc2cccc(Oc3ccccc3)c2)[C@@H]1C=C(F)F [Compound P31E] |  | 1800 | 850 |  | 
CC1(C)[C@H](C(=O)OC(C#N)c2cccc(Oc3ccccc3)c2)[C@@H]1C=C(F)F (stereo partly shown) [Compound P31F] |  | 1200 | 2200 |  | 
CC1(C)[C@H](C(=O)OCc2cccc(C(=O)c3ccccc3)c2)[C@@H]1C=C(Br)Br [Compound P39A, 3-benzoylbenzyl(1R)cis-2,2-dimethyl-3-(2,2-dibromovinyl)-cyclopropane carboxylate] |  | 50 | 830 |  | 
CC1(C)[C@H](C=C(F)F)[C@H]1C(=O)OCc1cccc(C(=O)c2ccccc2)c1 [Compound P39C, 3-benzoylbenzyl(1R)trans-2,2-dimethyl-3-(2,2-difluorovinyl)-cyclopropane carboxylate] |  | 6 | 50 |  | 
CC1(C)[C@H](C(=O)OCc2cccc(C(=O)c3ccccc3)c2)[C@@H]1C=C(F)F [Compound P39D, 3-benzoylbenzyl(1R)-cis-2,2-dimethyl-3-(2,2-difluorovinyl)-cyclopropane carboxylate] |  | 20 | 500 |  | 
CC/C=C\[C@@H]1[C@@H](C(=O)OCc2cccc(Cc3ccccc3)c2)C1(C)C [Compound S] |  | 120 | 170 |  | 
CC1(C)[C@H](C=CCl)[C@H]1C(=O)OCc1coc(Cc2ccccc2)c1 [K] |  | 1300 | 1600 |  | 
C#CC(OC(=O)[C@@H]1[C@H](C=C(Br)Br)C1(C)C)c1cccc(Oc2ccccc2)c1 (stereo partly shown) [ME7] |  | 1100 | 5000 |  | 
C=CCC1=C(C)C(OC(=O)[C@@H]2[C@@H](C=C(F)F)C2(C)C)CC1=O (stereo partly shown) [ME9] |  | 50 | 50 |  | 
C=CCC1=C(C)C(OC(=O)[C@@H]2[C@H](C=C(F)F)C2(C)C)CC1=O (stereo partly shown) [ME10] |  | 40 | 30 |  | 
CC1(C)C(C=C(Br)Br)C1C(=O)OC(C#N)c1cccc(Oc2ccccc2)c1 [P29B (non-crystalline isomer), (αR)-cyano-3-phenoxybenzyl(1R)cis-2,2-dimethyl-3-(2,2-dibromovinyl)cyclopropane carboxylate] |  | 3500 | 4000 |  | 
C=C/C=C\CC1=C(C)[C@@H](OC(=O)[C@@H]2[C@@H](C=C(C)C)C2(C)C)CC1=O [Pyrethrin I, reference compound] |  | 12 | 1600 |  | 
C=CCC1=C(C)C(OC(=O)[C@@H]2[C@@H](/C=C\CC)C2(C)C)CC1=O (stereo partly shown) [Q] |  | 60 | 69 |  | 
CC/C=C\[C@@H]1[C@@H](C(=O)OCc2cccc(Oc3ccccc3)c2)C1(C)C [T] |  | 240 | 300 |  | 
